Laboratory results: patent US12681018B2, “Photoactive fluorescent compounds and use thereof for labeling of proteins” (EIKON THERAPEUTICS, INC., priority 2021, dated 2026)
Read-outs that look alike come from different tables or passages of the source.

Biological target: T1, Estrogen Receptor-HaloTag (ER-Halo) fusion (Rhodococcus rhodochrous, UniProt P0A3G2, A155T/A167V/A172T/A224E/C128F/C176G/D78G/E160K/E257K/H272N/K175M/K195N/L47V/L88M/N227D/P291S/S58T/T264A/Y273L/Y87F)
T1 construct: expressed in transfected cells; host or cells: U2OS
Assay type: cell-based
Details: tracks in WT U2OS cells, ratio with PA-JF549 in the numerator, 100 nM, 1 hr
Procedure: Using the methods described in Tables 4a and 4b above, labelling specificity of the compound of Examples 1-24 was measured and compared to PA-JF549. U2OS cells wild type or expressing ER-HaloTag fusion were incubated with PA-JF549 or Examples 1-24 for 1 hr. […] Labeling specificity, as measured by the fold reduction in nonspecific labeling of WT cells, was calculated by number of tracks measured in WT cells for Examples 1-24 compared to the number of tracks in WT cells for PA-JF549, expressed as the ratio with PA-JF549 in the numerator.

T1 sequence (P03372 whole entry, the tested form may be a part): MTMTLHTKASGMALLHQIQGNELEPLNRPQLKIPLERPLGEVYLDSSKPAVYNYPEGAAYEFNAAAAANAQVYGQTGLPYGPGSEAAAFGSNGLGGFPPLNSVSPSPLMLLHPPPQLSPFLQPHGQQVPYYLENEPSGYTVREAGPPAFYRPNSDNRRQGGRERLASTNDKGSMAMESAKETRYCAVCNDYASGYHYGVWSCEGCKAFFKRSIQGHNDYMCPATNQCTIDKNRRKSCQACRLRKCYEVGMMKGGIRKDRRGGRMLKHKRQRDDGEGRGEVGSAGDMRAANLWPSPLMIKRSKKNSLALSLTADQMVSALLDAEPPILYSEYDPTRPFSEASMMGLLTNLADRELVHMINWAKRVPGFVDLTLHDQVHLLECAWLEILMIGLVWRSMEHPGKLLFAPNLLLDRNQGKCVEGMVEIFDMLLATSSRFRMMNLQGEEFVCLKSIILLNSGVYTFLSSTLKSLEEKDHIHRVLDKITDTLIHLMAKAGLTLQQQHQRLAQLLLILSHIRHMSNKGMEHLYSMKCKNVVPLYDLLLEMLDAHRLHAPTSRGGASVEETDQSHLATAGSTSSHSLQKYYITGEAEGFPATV
T1 sequence (P0A3G2 other isoform, or with tags, fused parts or gaps with the stated changes): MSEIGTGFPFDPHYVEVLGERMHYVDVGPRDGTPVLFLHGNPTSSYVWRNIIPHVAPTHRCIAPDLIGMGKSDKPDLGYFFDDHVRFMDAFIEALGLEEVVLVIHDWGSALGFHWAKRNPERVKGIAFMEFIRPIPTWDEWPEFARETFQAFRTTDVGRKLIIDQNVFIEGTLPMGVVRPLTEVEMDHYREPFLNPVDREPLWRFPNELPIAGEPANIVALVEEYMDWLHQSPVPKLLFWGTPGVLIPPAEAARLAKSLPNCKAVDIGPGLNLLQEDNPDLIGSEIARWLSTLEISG

Row | Molecule | Fold reduction in nonspecific labeling (Table 4b) | Fold reduction in nonspecific labeling (Table 4a)
1 | 1,1′-(6-((2-(2-((6-chlorohexyl)oxy)ethoxy)ethyl)carbamoyl)-2-diazo-3-oxo-2,3-dihydrospiro[indene-1,9′-xanthene]-3′,6′-diyl)bis(azetidine-3-carboxamide [Example 20] | >10 | 
2 | 3′,6′-di(azetidin-1-yl)-6-((2-(2-((6-chlorohexyl)oxy)ethoxy)ethyl)amino)-3H-spiro[isobenzofuran-1,9′-xanthen]-3-one [Example 21] | 5-10 | 
3 | CN(C)C(=O)C1CN(c2ccc3c(c2)Oc2cc(N4CC(C(=O)N(C)C)C4)ccc2C32C(=[N+]=[N-])C(=O)c3ccc(C(=O)NCc4ccc(COc5nc(N)nc6nc[nH]c56)cc4)cc32)C1 [Example 5] | >10 | >10
4 | COC(=O)[C@H]1CCN1c1ccc2c(c1)Oc1cc(N3CC[C@@H]3C(=O)OC)ccc1C21C(=[N+]=[N-])C(=O)c2ccc(C(=O)NCCOCCOCCCCCCCl)cc21 [Example 6] | 1-5 | 1-5
5 | [N-]=[N+]=C1C(=O)c2ccc(C(=O)NCCOCCOCCCCCCCl)cc2C12c1ccc(N3CC(O)C3)cc1Oc1cc(N3CC(O)C3)ccc12 [Example 7, N-(2-(2-((6-chlorohexyl)oxy)ethoxy)ethyl)-2-diazo-3′,6′-bis(3-hydroxyazetidin-1-yl)-3-oxo-2,3-dihydrospiro[indene-1,9′-xanthene]-6-carboxamide] | >10 | >10
6 | CN(CCOCCOCCCCCCCl)C(=O)c1ccc2c(c1)C1(C(=[N+]=[N-])C2=O)c2ccc(N3CCC3)cc2Oc2cc(N3CCC3)ccc21 [Example 8, 3′,6′-di(azetidin-1-yl)-N-(2-(2-((6-chlorohexyl)oxy)ethoxy)ethyl)-2-diazo-N-methyl-3-oxo-2,3-dihydrospiro[indene-1,9′-xanthene]-6-carboxamide] | 5-10 | 5-10
7 | [N-]=[N+]=C1C(=O)c2ccc(C(=O)NCCOCCOCCCCCCCl)cc2C12c1ccc(N3CC(C(=O)N4CCOCC4)C3)cc1Oc1cc(N3CC(C(=O)N4CCOCC4)C3)ccc12 [Example 9, N-(2-(2-((6-chlorohexyl)oxy)ethoxy)ethyl)-2-diazo-3′,6′-bis(3-(morpholine-4-carbonyl)azetidin-1-yl)-3-oxo-2,3-dihydrospiro[indene-1,9′-xanthene]-6-carboxamide] | >10 | >10
8 | [N-]=[N+]=C1C(=O)c2ccc(C(=O)NCCOCCOCCCCCCCl)cc2C12c1ccc(N3CC(C(=O)N4CCCC4)C3)cc1Oc1cc(N3CC(C(=O)N4CCCC4)C3)ccc12 [Example 10, N-(2-(2-((6-chlorohexyl)oxy)ethoxy)ethyl)-2-diazo-3-oxo-3′,6′-bis(3-(pyrrolidine-1-carbonyl)azetidin-1-yl)-2,3-dihydrospiro[indene-1,9′-xanthene]-6-carboxamide] | 5-10 | 5-10
9 | CN1CCN(C(=O)C2CN(c3ccc4c(c3)Oc3cc(N5CC(C(=O)N6CCN(C)CC6)C5)ccc3C43C(=[N+]=[N-])C(=O)c4ccc(C(=O)NCCOCCOCCCCCCCl)cc43)C2)CC1 [Example 11, N-(2-(2-((6-chlorohexyl)oxy)ethoxy)ethyl)-2-diazo-3′,6′-bis(3-(4-methylpiperazine-1-carbonyl)azetidin-1-yl)-3-oxo-2,3-dihydrospiro[indene-1,9′-xanthene]-6-carboxamide] | 1-5 | 1-5
10 | CNC(=O)C1CN(c2ccc3c(c2)Oc2cc(N4CC(C(=O)NC)C4)ccc2C32C(=[N+]=[N-])C(=O)c3ccc(C(=O)NCCOCCOCCCCCCCl)cc32)C1 [Example 12, 1,1′-(6-((2-(2-((6-chlorohexyl)oxy)ethoxy)ethyl)carbamoyl)-2-diazo-3-oxo-2,3-dihydrospiro[indene-1,9′-xanthene]-3′,6′-diyl)bis(N-methylazetidine-3-carboxamide)] | >10 | >10
11 | CN(C)C1CN(c2ccc3c(c2)Oc2cc(N4CC(N(C)C)C4)ccc2C32C(=[N+]=[N-])C(=O)c3ccc(C(=O)NCCOCCOCCCCCCCl)cc32)C1 [Example 13, N-(2-(2-((6-chlorohexyl)oxy)ethoxy)ethyl)-2-diazo-3′,6′-bis(3-(dimethylamino)azetidin-1-yl)-3-oxo-2,3-dihydrospiro[indene-1,9′-xanthene]-6-carboxamide] | 5-10 | 5-10
12 | CN(C)C(=O)[C@@H]1CCN1c1ccc2c(c1)Oc1cc(N3CC[C@H]3C(=O)N(C)C)ccc1C21C(=[N+]=[N-])C(=O)c2ccc(C(=O)NCCOCCOCCCCCCCl)cc21 [Example 14, (2S,2'S)-1,1′-(6-((2-(2-((6-chlorohexyl)oxy)ethoxy)ethyl)carbamoyl)-2-diazo-3-oxo-2,3-dihydrospiro[indene-1,9′-xanthene]-3′,6′-diyl)bis(N,N-dimethylazetidine-2-carboxamide)] | >10 | >10
13 | [N-]=[N+]=C1C(=O)c2ccc(C(=O)NCCOCCOCCCCCCCl)cc2C12c1ccc(N3CC[C@@H]3CO)cc1Oc1cc(N3CC[C@@H]3CO)ccc12 [Example 15, N-(2-(2-((6-chlorohexyl)oxy)ethoxy)ethyl)-2-diazo-3′,6′-bis((R)-2-(hydroxymethyl)azetidin-1-yl)-3-oxo-2,3-dihydrospiro[indene-1,9′-xanthene]-6-carboxamide] | 5-10 | 5-10
14 | CN(C)C(=O)[C@H]1CCN(c2ccc3c(c2)Oc2cc(N4CC[C@H](C(=O)N(C)C)C4)ccc2C32C(=[N+]=[N-])C(=O)c3ccc(C(=O)NCCOCCOCCCCCCCl)cc32)C1 [Example 16, (3S,3′S)-1,1′-(6-((2-(2-((6-chlorohexyl)oxy)ethoxy)ethyl)carbamoyl)-2-diazo-3-oxo-2,3-dihydrospiro[indene-1,9′-xanthene]-3′,6′-diyl)bis(N,N-dimethylpyrrolidine-3-carboxamide)] | 5-10 | 5-10
15 | [N-]=[N+]=C1C(=O)c2ccc(C(=O)NCCOCCOCCCCCCCl)cc2C12c1ccc(N3C4COCC3C4)cc1Oc1cc(N3C4COCC3C4)ccc12 (stereo not shown) [Example 17, 3′,6′-di(3-oxa-6-azabicyclo[3.1.1]heptan-6-yl)-N-(2-(2-((6-chlorohexyl)oxy)ethoxy)ethyl)-2-diazo-3-oxo-2,3-dihydrospiro[indene-1,9′-xanthene]-6-carboxamide] | 1-5 | 1-5
16 | CN1CC2CC(C1)N2c1ccc2c(c1)Oc1cc(N3C4CC3CN(C)C4)ccc1C21C(=[N+]=[N-])C(=O)c2ccc(C(=O)NCCOCCOCCCCCCCl)cc21 (stereo not shown) [Example 18, N-(2-(2-((6-chlorohexyl)oxy)ethoxy)ethyl)-2-diazo-3′,6′-bis(3-methyl-3,6-diazabicyclo[3.1.1]heptan-6-yl)-3-oxo-2,3-dihydrospiro[indene-1,9′-xanthene]-6-carboxamide] | >10 | >10
17 | CN(C)C(=O)C1CN(c2ccc3c(c2)[Si](C)(C)c2cc(N4CC(C(=O)N(C)C)C4)ccc2C32C(=[N+]=[N-])C(=O)c3ccc(C(=O)NCCOCCOCCCCCCCl)cc32)C1 [Example 19] | >10 | 
18 | [N-]=[N+]=C1C(=O)c2ccc(NC(=O)CCOCCOCCCCCCCl)cc2C12c1ccc(N3CCC3)cc1Oc1cc(N3CCC3)ccc12 [Example 22, 3-(2-((6-chlorohexyl)oxy)ethoxy)-N-(3′,6′-di(azetidin-1-yl)-2-diazo-3-oxo-2,3-dihydrospiro[indene-1,9′-xanthen]-6-yl)propanamide] | 5-10 | 
19 | [N-]=[N+]=C1C(=O)c2ccc(CCCCOCCOCCCCCCCl)cc2C12c1ccc(N3CCC3)cc1Oc1cc(N3CCC3)ccc12 [Example 24, 3′,6′-di(azetidin-1-yl)-6-(4-(2-((6-chlorohexyl)oxy)ethoxy)butyl)-2-diazospiro[indene-1,9′-xanthen]-3(2H)-one] | 1-5 | 
20 | (E)-3′,6′-di(azetidin-1-yl)-6-(4-(2-((6-chlorohexyl)oxy)ethoxy)but-1-en-1-yl)-2-diazospiro[indene-1,9′-xanthen]-3(2H)-one and (Z)-3′,6′-di(azetidin-1-yl)-6-(4-(2-((6-chlorohexyl)oxy)ethoxy)but-1-en-1-yl)-2-diazospiro[indene-1,9′-xanthen]-3(2H)-one [Example 23] | >10 | 
